Measured values from patent US20230085307A1, “PYRIDAZINONE COMPOUND AND HERBICIDE” (NISSAN CHEMICAL CORPORATION, priority 2019, published 2023).

System: oval-leafed pondweed
Test: Test Example 1: herbicidal activity, application before weed generation under submerged conditions (Table 16, symbol C)
Assay type: in vivo, oval-leafed pondweed (Monochoria vaginalis)
Conditions: amount of applied herbicide 320 g/ha
Summary of the method: (§1)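 Submerged Wagner pots (alluvial soil, 4 cm water) sown with weed seeds and planted with 2.5-leaf rice seedlings; emulsifiable concentrate diluted in water applied to water surface on sowing day. Held in greenhouse at 25-30 °C; injury scored 0-5 by herbicidal rate after three weeks.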

Structure (SMILES)	Herbicidal effect, C: oval-leafed pondweed
CCCC(=O)Oc1c(C)nn(C)c(=O)c1-c1c(-c2ccc(OC)cc2)sc2c(F)cccc12 [4-006]	0 (Herbicidal rate of 5% or less (almost no effect))

System: barnyard grass
Test: Test Example 3: herbicidal effect by foliage application, Wagner pot (Table 18, symbol H)
Assay type: in vivo, barnyard grass (Echinochloa crus-galli)
Conditions: 320 g/ha
Summary of the method: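 Plants were sown in alluvial soil held under 0.1–0.5 cm standing water and grown 14 days in a greenhouse at 25–30 °C. An emulsifiable formulation, water-diluted to the set dose, was then sprayed onto the foliage, and effects were scored three weeks later using previously defined criteria.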

Structure (SMILES)	herbicidal effect on barnyard grass (H)
CCCC(=O)Oc1c(C)nn(C)c(=O)c1-c1c(-c2ccc(OC)cc2)sc2c(F)cccc12 [4-006]	5 (Herbicidal rate of 90% or more (almost completely withered))

System: late watergrass
Test: Test Example 1: herbicidal activity, application before weed generation under submerged conditions (Table 16, symbol A)
Assay type: in vivo, late watergrass (Echinochloa oryzicola)
Conditions: amount of applied herbicide 320 g/ha
Summary of the method: as §1

Structure (SMILES)	Herbicidal effect, A: late watergrass
CCCC(=O)Oc1c(C)nn(C)c(=O)c1-c1c(-c2ccc(OC)cc2)sc2c(F)cccc12 [4-006]	3 (Herbicidal rate of 40% or more and less than 70%)

System: redroot pigweed
Test: Test Example 5: herbicidal effect by foliage application, plastic box (Table 20, symbol N)
Assay type: in vivo, redroot pigweed (Amaranthus retroflexus)
Conditions: 320 g/ha, foliage application after 14-day growth, evaluated three weeks after application
Summary of the method: (§2)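 Post-emergence foliar test in sterilized diluvial soil. Compound applied as water-diluted emulsion at a predetermined rate to 14-day-old plants; evaluation at three weeks.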

Structure (SMILES)	herbicidal effect on N: redroot pigweed (evaluation grade 0-5)
CCCC(=O)Oc1c(C)nn(C)c(=O)c1-c1c(-c2ccc(OC)cc2)sc2c(F)cccc12 [4-006]	5 (Herbicidal rate of 90% or more (almost completely withered))

System: southern crabgrass
Test: Test Example 5: herbicidal effect by foliage application, plastic box (Table 20, symbol F)
Assay type: in vivo, southern crabgrass (Digitaria ciliaris)
Conditions: 320 g/ha, foliage application after 14-day growth, evaluated three weeks after application
Summary of the method: as §2

Structure (SMILES)	herbicidal effect on F: southern crabgrass (evaluation grade 0-5)
CCCC(=O)Oc1c(C)nn(C)c(=O)c1-c1c(-c2ccc(OC)cc2)sc2c(F)cccc12 [4-006]	1 (Herbicidal rate of 5% or more and less than 20%)

System: late watergrass
Test: Test Example 2: herbicidal activity, application during weed generation under submerged conditions (Table 17, symbol A)
Assay type: in vivo, late watergrass (Echinochloa oryzicola)
Conditions: AAH 320 g/ha; application during weed generation, submerged conditions
Summary of the method: (§3)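 In this pot test, flooded alluvial soil (water depth 4 cm) holds all three species sown as a mixture. Once seedlings have one to two leaves, the compound's emulsion, thinned with water to the intended dose, is poured on the water; grading follows after three weeks on the earlier criteria.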

Structure (SMILES)	herbicidal effect rating, A: late watergrass
CCCC(=O)Oc1c(C)nn(C)c(=O)c1-c1c(-c2ccc(OC)cc2)sc2c(F)cccc12 [4-006]	3 (Herbicidal rate of 40% or more and less than 70%)

System: green foxtail
Test: Test Example 5: herbicidal effect by foliage application, plastic box (Table 20, symbol G)
Assay type: in vivo, green foxtail (Setaria viridis)
Conditions: 320 g/ha, foliage application after 14-day growth, evaluated three weeks after application
Summary of the method: as §2

Structure (SMILES)	herbicidal effect on G: green foxtail (evaluation grade 0-5)
CCCC(=O)Oc1c(C)nn(C)c(=O)c1-c1c(-c2ccc(OC)cc2)sc2c(F)cccc12 [4-006]	4 (Herbicidal rate of 70% or more and less than 90%)

System: chickweed
Test: Test Example 4: herbicidal effect by soil treatment (Table 19, symbol P)
Assay type: in vivo, common chickweed (Stellaria media)
Conditions: amount of applied herbicide 320 g/ha
Summary of the method: (§4)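 Emulsion of test compound, water-diluted to predetermined amount, sprayed on soil after sowing (seed depth ~1.5 cm, sterilized diluvial soil). Greenhouse, 25–30° C. Effect graded at three weeks post-spray.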

Structure (SMILES)	Herbicidal effect by soil treatment, P: chickweed
CCCC(=O)Oc1c(C)nn(C)c(=O)c1-c1c(-c2ccc(OC)cc2)sc2c(F)cccc12 [4-006]	0 (Herbicidal rate of 5% or less (almost no effect))

System: southern crabgrass
Test: Test Example 4: herbicidal effect by soil treatment (Table 19, symbol F)
Assay type: in vivo, southern crabgrass (Digitaria ciliaris)
Conditions: amount of applied herbicide 320 g/ha
Summary of the method: as §4

Structure (SMILES)	Herbicidal effect by soil treatment, F: southern crabgrass
CCCC(=O)Oc1c(C)nn(C)c(=O)c1-c1c(-c2ccc(OC)cc2)sc2c(F)cccc12 [4-006]	0 (Herbicidal rate of 5% or less (almost no effect))

System: oval-leafed pondweed
Test: Test Example 2: herbicidal activity, application during weed generation under submerged conditions (Table 17, symbol C)
Assay type: in vivo, oval-leafed pondweed (Monochoria vaginalis)
Conditions: AAH 320 g/ha; application during weed generation, submerged conditions
Summary of the method: as §3

Structure (SMILES)	herbicidal effect rating, C: oval-leafed pondweed
CCCC(=O)Oc1c(C)nn(C)c(=O)c1-c1c(-c2ccc(OC)cc2)sc2c(F)cccc12 [4-006]	2 (Herbicidal rate of 20% or more and less than 40%)

System: velvetleaf
Test: Test Example 4: herbicidal effect by soil treatment (Table 19, symbol M)
Assay type: in vivo, velvetleaf (Abutilon theophrasti)
Conditions: amount of applied herbicide 320 g/ha
Summary of the method: as §4

Structure (SMILES)	Herbicidal effect by soil treatment, M: velvetleaf
CCCC(=O)Oc1c(C)nn(C)c(=O)c1-c1c(-c2ccc(OC)cc2)sc2c(F)cccc12 [4-006]	1 (Herbicidal rate of 5% or more and less than 20%)

System: windgrass
Test: Test Example 4: herbicidal effect by soil treatment (Table 19, symbol L)
Assay type: in vivo, windgrass (Apera spica-venti)
Conditions: amount of applied herbicide 320 g/ha
Summary of the method: as §4

Structure (SMILES)	Herbicidal effect by soil treatment, L: windgrass
CCCC(=O)Oc1c(C)nn(C)c(=O)c1-c1c(-c2ccc(OC)cc2)sc2c(F)cccc12 [4-006]	0 (Herbicidal rate of 5% or less (almost no effect))

System: redroot pigweed
Test: Test Example 4: herbicidal effect by soil treatment (Table 19, symbol N)
Assay type: in vivo, redroot pigweed (Amaranthus retroflexus)
Conditions: amount of applied herbicide 320 g/ha
Summary of the method: as §4

Structure (SMILES)	Herbicidal effect by soil treatment, N: redroot pigweed
CCCC(=O)Oc1c(C)nn(C)c(=O)c1-c1c(-c2ccc(OC)cc2)sc2c(F)cccc12 [4-006]	4 (Herbicidal rate of 70% or more and less than 90%)

System: Japanese bulrush
Test: Test Example 1: herbicidal activity, application before weed generation under submerged conditions (Table 16, symbol B)
Assay type: in vivo, Japanese bulrush (Schoenoplectus juncoides)
Conditions: amount of applied herbicide 320 g/ha
Summary of the method: as §1

Structure (SMILES)	Herbicidal effect, B: Japanese bulrush
CCCC(=O)Oc1c(C)nn(C)c(=O)c1-c1c(-c2ccc(OC)cc2)sc2c(F)cccc12 [4-006]	3 (Herbicidal rate of 40% or more and less than 70%)

System: persian speedwell
Test: Test Example 4: herbicidal effect by soil treatment (Table 19, symbol R)
Assay type: in vivo, Persian speedwell (Veronica persica)
Conditions: amount of applied herbicide 320 g/ha
Summary of the method: as §4

Structure (SMILES)	Herbicidal effect by soil treatment, R: persian speedwell
CCCC(=O)Oc1c(C)nn(C)c(=O)c1-c1c(-c2ccc(OC)cc2)sc2c(F)cccc12 [4-006]	0 (Herbicidal rate of 5% or less (almost no effect))

System: wild oat
Test: Test Example 4: herbicidal effect by soil treatment (Table 19, symbol I)
Assay type: in vivo, wild oat (Avena fatua)
Conditions: amount of applied herbicide 320 g/ha
Summary of the method: as §4

Structure (SMILES)	Herbicidal effect by soil treatment, I: wild oat
CCCC(=O)Oc1c(C)nn(C)c(=O)c1-c1c(-c2ccc(OC)cc2)sc2c(F)cccc12 [4-006]	0 (Herbicidal rate of 5% or less (almost no effect))
